The structures appear in SMILES notation. Bounds are passed on as bounds.

The assay has as its target T1, CmedPR2 (with CmedORco) (Cnaphalocrocis medinalis, UniProt A0A0U3BFF0).
T1 sequence (A0A0U3BFF0 1-434): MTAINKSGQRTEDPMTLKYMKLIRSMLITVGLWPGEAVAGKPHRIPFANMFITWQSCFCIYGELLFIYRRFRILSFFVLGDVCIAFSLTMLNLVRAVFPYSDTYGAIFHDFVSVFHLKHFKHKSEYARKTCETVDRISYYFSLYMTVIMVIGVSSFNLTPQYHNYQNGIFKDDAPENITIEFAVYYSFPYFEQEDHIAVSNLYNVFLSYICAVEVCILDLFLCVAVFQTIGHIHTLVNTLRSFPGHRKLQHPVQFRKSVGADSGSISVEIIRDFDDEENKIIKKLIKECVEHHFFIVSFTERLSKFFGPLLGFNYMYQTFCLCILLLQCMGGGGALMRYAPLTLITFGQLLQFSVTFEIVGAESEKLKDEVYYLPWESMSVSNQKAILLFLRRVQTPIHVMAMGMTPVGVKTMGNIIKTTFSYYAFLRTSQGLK
T1 sequence (H9XFD5 1-473 partner): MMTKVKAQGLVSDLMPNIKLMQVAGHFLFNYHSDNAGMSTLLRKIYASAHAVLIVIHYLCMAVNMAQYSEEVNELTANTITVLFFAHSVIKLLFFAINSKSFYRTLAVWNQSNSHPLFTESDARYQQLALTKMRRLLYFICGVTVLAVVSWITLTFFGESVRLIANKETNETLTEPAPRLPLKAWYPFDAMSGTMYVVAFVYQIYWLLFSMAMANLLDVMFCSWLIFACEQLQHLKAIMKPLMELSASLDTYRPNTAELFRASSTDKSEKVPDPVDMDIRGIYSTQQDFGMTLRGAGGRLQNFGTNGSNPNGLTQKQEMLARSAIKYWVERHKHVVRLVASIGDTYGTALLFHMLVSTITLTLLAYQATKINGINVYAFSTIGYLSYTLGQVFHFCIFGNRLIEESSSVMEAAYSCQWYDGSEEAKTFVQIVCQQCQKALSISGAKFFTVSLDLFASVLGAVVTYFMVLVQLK
Description: two-electrode voltage clamp, Xenopus oocytes. Format: cell-based. To be noted: agonist 10-4 mol/L; co-expressed CmedORco; holding potential -80 mV; pH 7.5.
The compound `CCCC/C=C\CCCCCCCCCCCCO` [Z13-18:OH, (Z)-13-octadecen-1-ol] gave a response current of 46 ± 1.6 nA.
The figure for `CCCC/C=C\CCCCCCCCCCCC=O` [Z13-18:Ald, (Z)-13-octadecenal] is 106 ± 6.4 nA.
`CCCCCC/C=C\CCCCCCCC=O` [Z9-16:Ald]: the response current is on record as more than 140 nA.
The figure for `CCCC/C=C\CCCCCCCCCC=O` [Z11-16:Ald] is more than 140 nA.
